The numbers were not newly measured in patent US20120035233A1 (priority 2009, published 2012), which cites them from elsewhere.

Read-outs that look alike come from different tables or passages of the source.

With `Clc1ccc(COC(Cn2ccnc2)c2ccc(Cl)cc2Cl)c(Cl)c1` (centres unmarked) [Miconazole Nitrate, 1-[2-(2,4-Dichlorophenyl)-2-[(2,4-dichlorophenyl)methoxy]ethyl]-1H-imidazole], the solubility result is recorded as “slightly soluble” (chloroform); “slightly soluble” (ethanol (95%)); “very slightly soluble” (ether); “freely soluble” (methanol); “very slightly soluble” (water).
